Results taken from patent US20230278972A1, “SUBSTITUTED HALOALKYL SULFONANILIDE HERBICIDES” (FMC Corporation, priority 2020, published 2023).

Tests used:
Assay type in all cases: in vivo
corn (Zea mays) = assay: Test A1 preemergence, corn
Method in brief: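 Plants grown in pots of loam/sand mix; preemergence = soil-directed spray on seeded pots, postemergence = spray at 1–2 leaves, height 2–10 cm; test chemicals formulated in non-phytotoxic solvent with surfactant.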

[1] = system: Pigweed, Palmer (palmer amaranth, palmer pigweed, Amaranthus palmeri); assay: Test A1 preemergence, Pigweed, Palmer
Method in brief: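 Test compounds were formulated in a non-phytotoxic solvent mixture containing a surfactant. For preemergence, seeds sown in a loam soil–sand blend received a directed soil spray. For postemergence, potted plants in the same soil, 2 to 10 cm tall at the one- to two-leaf stage, were sprayed.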

[2] = system: Foxtail, Giant (giant foxtail, Setaria faberi); assay: Test A1 postemergence, Foxtail, Giant; settings: for Foxtail, Giant plant response rating: postemergence; for Plant response rating, Foxtail, Giant: Postemergence
Method in brief: (§1)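 Pre: seeds in loam/sand blend, directed soil spray. Post: potted plants, same soil, 2–10 cm, 1–2 leaf stage. Chemicals in non-phytotoxic solvent + surfactant for both.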

[3] = system: galium (catchweed bedstraw, Galium aparine); assay: Test A1 postemergence, galium; settings: for Galium plant response rating: postemergence; for Plant response rating, Galium: Postemergence
Method in brief: as §1

[4] = system: barnyardgrass (Echinochloa crus-galli); assay: Test B1 flooded paddy test, barnyardgrass; settings: 250 g ai/ha, Flood, applied to paddy water, 2-leaf stage, visually evaluated after 10 to 14 days
From the text: (§2) A dash (-) response means no test result.

[5] = system: ducksalad (Heteranthera limosa); assay: Test B1 flooded paddy test, ducksalad; settings: 250 g ai/ha, Flood, applied to paddy water, 2-leaf stage, visually evaluated after 10 to 14 days
From the text: as §2

[6] = 31 g ai/ha, 0 to 100 scale (0 no effect, 100 complete control)
[7] = 125 g ai/ha, 0 to 100 scale, 0 no effect, 100 complete control
[8] = 125 g ai/ha, 0 to 100 scale (0 no effect, 100 complete control), 10 days
[9] = 125 g ai/ha, 0 to 100 scale (0 no effect, 100 complete control)
[10] = 500 g ai/ha, 0 to 100 scale (0 no effect, 100 complete control)
[11] = 31 g ai/ha, 0 to 100 scale (0 no effect, 100 complete control), 10 days

Row | Compound | Plant response rating, Corn (corn (Zea mays); [6]) | Plant response rating, Corn (corn (Zea mays); [7]) | Plant response rating, Pigweed, Palmer [1, 6] | Plant response rating, Pigweed, Palmer [1, 7] | Foxtail, Giant plant response rating [2, 6] | Plant response rating, Foxtail, Giant ([2]; 125 g ai/ha, 0 to 100 scale) | Galium plant response rating [3, 6] | Plant response rating, Galium ([3]; 125 g ai/ha, 0 to 100 scale) | Plant response rating, Barnyardgrass (0 to 100 scale, 0 is no effect, 100 is complete control) [4] | Plant response rating, Ducksalad (0 to 100 scale, 0 is no effect, 100 is complete control) [5] | Plant response rating, Foxtail, Giant [2, 8] | Plant response rating, Galium [3, 8] | Plant response rating, Pigweed, Palmer [1, 9] | Plant response rating, Corn (corn (Zea mays); [10]) | Plant response rating, Pigweed, Palmer [1, 10] | Plant response rating, Foxtail, Giant ([2]; 500 g ai/ha, 0 to 100 scale) | Plant response rating, Galium ([3]; 500 g ai/ha, 0 to 100 scale) | Plant response rating, Foxtail, Giant [2, 11] | Plant response rating, Galium [3, 11]
1 | CCC1CC(c2cc(NS(=O)(=O)C(F)(F)F)c(C)cc2C)=NO1 (stereo not drawn) [Compound 375] | 0 | 70 | 0 | 80 | 0 | 10 | 10 | 20 | 50 | 60 |  |  |  |  |  |  |  |  | 
2 | COC1CCC2(CC1)CCN(c1cc(NS(=O)(=O)C(F)(F)F)c(C)cc1C)C2=O (stereo not drawn) [Compound 398] | 0 | 60 | 80 | 100 | 20 |  | 80 |  | 85 | 95 | 60 | 90 |  |  |  |  |  |  | 
3 | Cc1cc(C)c(N2Cc3cccc(Br)c3C2=O)cc1NS(=O)(=O)Cl [Compound 415] | 0 | 80 |  |  | 0 |  | 60 |  | 85 | 65 | 30 | 90 | 60 |  |  |  |  |  | 
4 | C#CCN(C)C(=O)c1cc(NS(=O)(=O)C(F)(F)F)c(C)c(C)c1C [Compound 368] | 0 | 90 | 100 | 100 | 80 | 90 | 70 | 100 | 70 | 60 |  |  |  |  |  |  |  |  | 
5 | Cc1ccc(C2=NOC3CCCC23)cc1NS(=O)(=O)C(F)(F)F (stereo not drawn) [Compound 377] | 0 | 0 | 0 | 0 | 0 | 0 | 0 | 0 | 0 | 15 |  |  |  |  |  |  |  |  | 
6 | Cc1c(C(=O)N2CCC(C)CC2)cc(N(COC(=O)C(C)(C)C)S(=O)(=O)C(F)(F)F)c(C)c1C [Compound 369] | 0 | 0 | 0 | 50 | 20 | 90 | 60 | 80 | 90 | 65 |  |  |  |  |  |  |  |  | 
7 | Cc1c(C2=NOC3(CCCC3)C2)cc(N(COC(=O)C(C)(C)C)S(=O)(=O)C(F)(F)F)c(C)c1C [Compound 382] | 0 | 0 | 0 | 20 | 0 |  | 0 |  | 90 | 25 | 50 | 50 |  |  |  |  |  |  | 
8 | Cc1cc(C)c(N2CCC3(CCC(C)CC3)C2=O)cc1NS(=O)(=O)C(F)(F)F (stereo not drawn) [Compound 402] | 0 | 80 | 60 | 80 | 0 |  | 70 |  | 0 | 45 | 20 | 90 |  |  |  |  |  |  | 
9 | Cc1cc(Cl)c(NS(=O)(=O)C(F)(F)F)cc1N1CCC2(CCCCC2)C1=O [Compound 393] | 0 | 80 | 30 | 60 | 0 |  | 100 |  | 0 | 95 | 40 | 100 |  |  |  |  |  |  | 
10 | CCOC(=O)N(c1cc(C2=NOC3CCCC23)c(CC)cc1C)S(=O)(=O)C(F)(F)F (stereo not drawn) [Compound 379] | 0 | 0 |  |  | 0 | 10 | 0 | 40 | 95 | 60 |  |  |  |  |  |  |  |  | 
11 | Cc1cc(Cl)c(NS(=O)(=O)C(F)(F)F)cc1N1CC2(CCCCC2)OC1=O [Compound 394] | 0 | 20 | 20 | 90 | 0 |  | 100 |  | 0 | 85 | 50 | 100 |  |  |  |  |  |  | 
12 | COC1CCN(C(=O)c2cc(NS(=O)(=O)C(F)(F)F)c(C)c(C)c2C)CC1 [Compound 367] | 10 | 90 | 80 | 100 | 10 | 90 | 50 | 100 | 60 | 80 |  |  |  |  |  |  |  |  | 
13 | Cc1cc(C)c(N(COC(=O)C(C)(C)C)S(=O)(=O)C(F)(F)F)cc1N1CCC2(CCC(C)CC2)C1=O (stereo not drawn) [Compound 401] | 0 | 20 | 0 | 20 | 0 |  | 50 |  | 98 | 45 | 60 | 80 |  |  |  |  |  |  | 
14 | Cc1cc(C)c(N(COC(=O)C(C)(C)C)S(=O)(=O)C(F)(F)F)cc1N1CCC2(CCC(F)(F)CC2)C1=O [Compound 397] |  | 10 |  | 90 |  |  |  |  | 90 | 75 | 20 | 100 |  | 60 | 100 | 70 | 100 |  | 
15 | Cc1cc(C)c(C2=NOC3OCCCC23)cc1NS(=O)(=O)C(F)(F)F (stereo not drawn) [Compound 372] | 0 | 10 | 40 | 90 | 0 | 40 | 60 | 80 | 20 | 65 |  |  |  |  |  |  |  |  | 
16 | Cc1c(NS(=O)(=O)C(F)(F)F)cc(C(=O)N2CCSCC2)c(C)c1C [Compound 283] | 0 | 10 | 10 | 50 |  | 90 |  | 70 | 15 | 50 |  |  |  |  |  |  |  | 80 | 50
17 | Cc1cc(C)c(N2CCC3(CCC(C(F)(F)F)CC3)C2=O)cc1NS(=O)(=O)C(F)(F)F (stereo not drawn) [Compound 400] | 0 | 20 | 50 | 100 | 0 |  | 80 |  | 20 | 55 | 0 | 100 |  |  |  |  |  |  | 
18 | COc1cccc2c1C(=O)N(c1cc(N(COC(=O)C(C)(C)C)S(=O)(=O)Cl)c(C)cc1C)C2 [Compound 413] | 0 | 10 |  |  | 0 |  | 50 |  | 40 | 80 | 10 | 100 | 90 |  |  |  |  |  | 
19 | Cc1c(C(=O)N2C[C@@H](C)O[C@H](C)C2)cc(N(COC(=O)C(C)(C)C)S(=O)(=O)C(F)(F)F)c(C)c1C (relative stereo) [Compound 373] | 0 | 20 | 20 | 40 | 0 | 60 | 50 | 70 | 95 | 85 |  |  |  |  |  |  |  |  | 
